Reference: ChEMBL document CHEMBL4145674, “Discovery of 3-Benzyl-1-( trans-4-((5-cyanopyridin-2-yl)amino)cyclohexyl)-1-arylurea Derivatives as Novel and Selective Cyclin-Dependent Kinase 12 (CDK12) Inhibitors” (J Med Chem, 2018)

What was measured:
CDK7/Cyclin H/MNAT1 = CDK7/Cyclin H/MNAT1 (Homo sapiens, UniProt P50613)
Description: Inhibition of GST-tagged human GST-tagged CDK7/CycH/MAT1 (04 to 108 residues) using kinase tracer 236 probe incubated for 60 mins by TR-FRET assay

CDK8/Cyclin C = CDK8/Cyclin C (Homo sapiens, UniProt P49336); assay: Inhibition of GST-tagged human CDK8/CycC (04 to 109 residues) using kinase tracer 236 probe incubated for 60 mins by TR-FRET assay; type: protein-complex assay
[1] = target: Cyclin-dependent kinase 13/Cyclin-K (Homo sapiens, UniProt Q14004); assay: Inhibition of N-terminal FLAG-tagged human full-length CDK13 (1 to 1512 residues)/N-terminal His-tagged CycK (1 to 580 residues) expressed in Sf9 cells assessed as reduction in ATP-dependent ULight-4E-BP1 (Thr37/Thr46) substrate peptide phosphorylation pre-incubated for 60 mins by LANCE Ultra assay
CDK12/Cyclin K = CDK12/Cyclin K (Homo sapiens, UniProt Q9NYV4); assay: Inhibition of N-terminal FLAG-tagged human full-length CDK12 (1 to 1490 residues)/N-terminal His-tagged CycK (1 to 580 residues) expressed in Sf9 cells assessed as reduction in ATP-dependent ULight-4E-BP1 (Thr37/Thr46) substrate peptide phosphorylation pre-incubated for 60 mins by LANCE Ultra assay
CDK9/cyclin T1 = CDK9/cyclin T1 (Homo sapiens, UniProt P50750); type: protein-complex assay
Description: Inhibition of GST-tagged human CDK9/CycT1 (04 to 110 residues) assessed as reduction in ATP-dependent ULight-4E-BP1 (Thr37/Thr46) substrate peptide phosphorylation pre-incubated for 60 mins by LANCE Ultra assay

[2] = target: Cyclin-dependent kinase 12 (Homo sapiens, UniProt Q9NYV4); assay: Inhibition of CDK12 in human SK-BR-3 cells assessed as reduction in RNA polymerase 2 Ser2 phosphorylation incubated for 4 hrs by; type: cell-based
Chain of Cyclin-dependent kinase 12 (Q9NYV4 whole entry): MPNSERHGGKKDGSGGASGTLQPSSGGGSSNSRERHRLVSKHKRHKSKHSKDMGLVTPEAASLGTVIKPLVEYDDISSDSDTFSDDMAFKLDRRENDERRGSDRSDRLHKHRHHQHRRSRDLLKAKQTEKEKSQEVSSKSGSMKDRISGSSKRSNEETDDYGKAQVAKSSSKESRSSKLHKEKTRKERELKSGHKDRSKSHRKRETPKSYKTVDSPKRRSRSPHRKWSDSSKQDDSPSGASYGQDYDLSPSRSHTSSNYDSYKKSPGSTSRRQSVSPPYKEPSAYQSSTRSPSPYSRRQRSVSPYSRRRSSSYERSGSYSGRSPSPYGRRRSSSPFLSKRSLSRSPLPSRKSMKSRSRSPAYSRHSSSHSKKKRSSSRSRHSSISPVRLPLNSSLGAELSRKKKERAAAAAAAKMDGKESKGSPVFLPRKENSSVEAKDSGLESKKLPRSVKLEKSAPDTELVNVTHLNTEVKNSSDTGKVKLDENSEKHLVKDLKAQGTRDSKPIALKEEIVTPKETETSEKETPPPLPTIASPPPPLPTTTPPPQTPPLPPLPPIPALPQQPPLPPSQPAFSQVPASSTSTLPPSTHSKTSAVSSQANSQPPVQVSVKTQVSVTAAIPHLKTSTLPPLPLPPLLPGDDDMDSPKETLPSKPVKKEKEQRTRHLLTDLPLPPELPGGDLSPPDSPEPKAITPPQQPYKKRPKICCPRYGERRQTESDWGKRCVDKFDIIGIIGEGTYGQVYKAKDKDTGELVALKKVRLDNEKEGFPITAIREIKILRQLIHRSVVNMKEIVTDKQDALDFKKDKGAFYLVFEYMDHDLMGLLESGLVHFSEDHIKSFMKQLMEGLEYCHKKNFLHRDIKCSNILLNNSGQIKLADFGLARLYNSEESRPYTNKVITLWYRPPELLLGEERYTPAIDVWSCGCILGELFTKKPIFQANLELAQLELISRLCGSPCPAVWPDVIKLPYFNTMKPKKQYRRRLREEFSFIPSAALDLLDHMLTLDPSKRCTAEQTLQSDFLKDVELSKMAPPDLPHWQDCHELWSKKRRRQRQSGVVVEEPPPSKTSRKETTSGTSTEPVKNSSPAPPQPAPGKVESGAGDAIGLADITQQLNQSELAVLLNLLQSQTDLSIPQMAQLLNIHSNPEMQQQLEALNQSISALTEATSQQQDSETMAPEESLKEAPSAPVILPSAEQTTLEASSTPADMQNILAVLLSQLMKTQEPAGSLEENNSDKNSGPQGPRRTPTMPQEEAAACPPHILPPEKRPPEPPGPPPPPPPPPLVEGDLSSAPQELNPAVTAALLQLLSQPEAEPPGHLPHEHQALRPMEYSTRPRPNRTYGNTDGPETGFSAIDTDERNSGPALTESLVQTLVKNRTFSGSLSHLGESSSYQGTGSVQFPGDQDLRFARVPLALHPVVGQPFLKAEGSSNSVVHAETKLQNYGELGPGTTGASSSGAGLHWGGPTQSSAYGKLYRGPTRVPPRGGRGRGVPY

Chain of CDK7/Cyclin H/MNAT1 (P51946 whole entry, the tested form may be a part): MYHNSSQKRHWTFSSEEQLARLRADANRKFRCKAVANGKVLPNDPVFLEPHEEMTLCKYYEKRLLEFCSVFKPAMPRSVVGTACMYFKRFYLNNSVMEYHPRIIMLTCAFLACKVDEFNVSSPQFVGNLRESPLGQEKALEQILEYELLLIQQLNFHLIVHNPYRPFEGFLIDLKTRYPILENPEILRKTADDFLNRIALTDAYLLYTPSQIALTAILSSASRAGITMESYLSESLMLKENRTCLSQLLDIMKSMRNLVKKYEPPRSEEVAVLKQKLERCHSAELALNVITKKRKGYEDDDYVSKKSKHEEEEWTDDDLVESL
Chain of CDK7/Cyclin H/MNAT1 (P50613 whole entry, the tested form may be a part): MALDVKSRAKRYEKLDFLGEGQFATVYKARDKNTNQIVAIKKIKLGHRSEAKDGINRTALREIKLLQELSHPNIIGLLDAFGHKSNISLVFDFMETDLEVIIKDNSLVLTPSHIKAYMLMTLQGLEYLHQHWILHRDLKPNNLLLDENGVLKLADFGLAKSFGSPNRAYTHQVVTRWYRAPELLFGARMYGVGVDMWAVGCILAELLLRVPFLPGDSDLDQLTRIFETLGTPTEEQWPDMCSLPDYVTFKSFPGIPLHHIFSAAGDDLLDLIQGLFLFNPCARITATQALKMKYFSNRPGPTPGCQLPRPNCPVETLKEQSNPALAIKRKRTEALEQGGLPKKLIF
Chain of CDK7/Cyclin H/MNAT1 (P51948 whole entry, further chain, the tested form may be a part): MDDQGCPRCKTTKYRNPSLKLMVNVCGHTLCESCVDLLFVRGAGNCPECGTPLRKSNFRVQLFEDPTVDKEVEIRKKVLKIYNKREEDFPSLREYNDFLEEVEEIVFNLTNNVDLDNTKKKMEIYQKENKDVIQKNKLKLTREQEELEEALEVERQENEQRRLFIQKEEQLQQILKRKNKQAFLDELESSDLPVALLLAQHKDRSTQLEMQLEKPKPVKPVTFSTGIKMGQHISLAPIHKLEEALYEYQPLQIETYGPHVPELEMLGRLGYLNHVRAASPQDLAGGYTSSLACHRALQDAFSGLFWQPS
Chain of CDK12/Cyclin K (O75909 whole entry, the tested form may be a part): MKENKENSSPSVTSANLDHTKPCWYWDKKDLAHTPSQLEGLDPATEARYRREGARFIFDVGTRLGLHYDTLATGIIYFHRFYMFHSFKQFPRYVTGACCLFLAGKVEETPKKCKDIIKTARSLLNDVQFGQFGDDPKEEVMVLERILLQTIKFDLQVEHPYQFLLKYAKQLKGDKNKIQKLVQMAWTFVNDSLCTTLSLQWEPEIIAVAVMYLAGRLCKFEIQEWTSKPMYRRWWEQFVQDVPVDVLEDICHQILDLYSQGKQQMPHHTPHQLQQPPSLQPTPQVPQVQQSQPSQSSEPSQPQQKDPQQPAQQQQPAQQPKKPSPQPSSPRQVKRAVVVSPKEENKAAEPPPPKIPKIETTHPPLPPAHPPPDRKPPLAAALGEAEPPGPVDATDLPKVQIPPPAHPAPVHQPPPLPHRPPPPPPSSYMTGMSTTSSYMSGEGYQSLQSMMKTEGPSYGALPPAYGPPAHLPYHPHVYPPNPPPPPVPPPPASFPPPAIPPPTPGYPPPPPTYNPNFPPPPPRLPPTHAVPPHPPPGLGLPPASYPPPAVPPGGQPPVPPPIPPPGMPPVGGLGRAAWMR
Chain of CDK12/Cyclin K (Q9NYV4 whole entry, the tested form may be a part): as the sequence (Q9NYV4 whole entry) above
Chain of CDK9/cyclin T1 (O60563 whole entry): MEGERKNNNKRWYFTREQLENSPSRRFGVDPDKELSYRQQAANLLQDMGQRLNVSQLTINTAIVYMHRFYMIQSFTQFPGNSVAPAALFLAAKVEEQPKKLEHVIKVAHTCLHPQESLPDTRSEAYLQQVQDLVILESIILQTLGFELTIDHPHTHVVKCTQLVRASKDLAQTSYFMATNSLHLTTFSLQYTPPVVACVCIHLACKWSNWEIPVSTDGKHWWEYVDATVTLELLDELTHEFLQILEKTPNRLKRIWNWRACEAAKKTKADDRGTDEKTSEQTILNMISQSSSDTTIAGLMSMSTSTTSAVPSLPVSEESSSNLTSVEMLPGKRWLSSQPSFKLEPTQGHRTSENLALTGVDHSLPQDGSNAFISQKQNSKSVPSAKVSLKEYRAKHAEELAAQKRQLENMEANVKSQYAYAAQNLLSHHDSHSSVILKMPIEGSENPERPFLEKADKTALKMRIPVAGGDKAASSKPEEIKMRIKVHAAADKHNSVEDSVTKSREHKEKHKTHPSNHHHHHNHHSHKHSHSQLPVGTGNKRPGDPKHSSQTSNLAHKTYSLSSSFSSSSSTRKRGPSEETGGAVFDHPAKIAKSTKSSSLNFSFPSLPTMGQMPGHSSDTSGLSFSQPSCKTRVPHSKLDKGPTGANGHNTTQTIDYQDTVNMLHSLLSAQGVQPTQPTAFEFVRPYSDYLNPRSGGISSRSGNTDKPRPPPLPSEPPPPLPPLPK
Chain of CDK9/cyclin T1 (P50750 whole entry): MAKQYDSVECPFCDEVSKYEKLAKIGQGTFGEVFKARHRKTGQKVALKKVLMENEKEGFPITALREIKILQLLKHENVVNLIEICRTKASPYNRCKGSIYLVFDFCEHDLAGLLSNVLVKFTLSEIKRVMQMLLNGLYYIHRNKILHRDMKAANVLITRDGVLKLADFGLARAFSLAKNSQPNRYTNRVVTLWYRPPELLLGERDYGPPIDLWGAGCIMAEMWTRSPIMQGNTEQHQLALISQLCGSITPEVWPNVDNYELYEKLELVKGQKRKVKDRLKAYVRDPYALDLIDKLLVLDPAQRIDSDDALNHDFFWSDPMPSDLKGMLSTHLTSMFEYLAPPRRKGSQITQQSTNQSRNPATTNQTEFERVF
Chain of CDK8/Cyclin C (P49336 whole entry, the tested form may be a part): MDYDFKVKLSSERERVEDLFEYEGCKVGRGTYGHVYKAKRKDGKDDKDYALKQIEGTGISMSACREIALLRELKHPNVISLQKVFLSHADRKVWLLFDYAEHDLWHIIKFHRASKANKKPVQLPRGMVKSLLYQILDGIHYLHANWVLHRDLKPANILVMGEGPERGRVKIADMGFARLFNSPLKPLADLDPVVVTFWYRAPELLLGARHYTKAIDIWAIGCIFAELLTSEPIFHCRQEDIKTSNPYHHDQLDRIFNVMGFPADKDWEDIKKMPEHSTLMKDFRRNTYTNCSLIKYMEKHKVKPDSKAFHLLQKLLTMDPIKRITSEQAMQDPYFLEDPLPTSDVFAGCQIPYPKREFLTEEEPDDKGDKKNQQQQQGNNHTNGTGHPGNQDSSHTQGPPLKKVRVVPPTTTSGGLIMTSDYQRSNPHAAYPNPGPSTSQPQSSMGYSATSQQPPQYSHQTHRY
Chain of CDK8/Cyclin C (P24863 whole entry, further chain, the tested form may be a part): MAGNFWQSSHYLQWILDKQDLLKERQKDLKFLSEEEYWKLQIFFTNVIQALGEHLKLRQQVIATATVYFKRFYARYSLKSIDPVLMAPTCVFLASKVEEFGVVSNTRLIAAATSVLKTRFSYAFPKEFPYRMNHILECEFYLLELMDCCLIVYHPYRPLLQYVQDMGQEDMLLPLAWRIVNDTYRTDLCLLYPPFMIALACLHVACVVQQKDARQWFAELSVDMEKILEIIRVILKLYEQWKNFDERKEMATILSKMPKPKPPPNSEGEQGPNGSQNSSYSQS

| SMILES | IC50 (CDK7/Cyclin H/MNAT1) [nM] | IC50 (CDK8/Cyclin C) [nM] | IC50 [1] [nM] | IC50 (CDK12/Cyclin K) [nM] | IC50 (CDK9/cyclin T1) [nM] | IC50 [2] [nM] |
| --- | --- | --- | --- | --- | --- | --- |
| Cn1cc(-c2ccc(N(C(=O)NCc3ccccc3)[C@H]3CC[C@@H](Nc4ccc(C#N)cn4)CC3)cc2)cn1 | > 10000 | > 10000 | > 10000 | > 30000 | > 30000 | – |
| CC(C)C(=O)OC[C@@H]1O[C@@H](n2cnc(N)c3c(C(N)=O)c(Br)nc2-3)[C@@H](O)[C@@H]1O | 1200 | – | – | 110 | 220 | 259 |
